How the values were obtained:
[1] = target: T1, human CYP11B1 (Homo sapiens, UniProt P15538); assay: G-402 cellular enzyme assay, human CYP11B1 (cortisol release, HTRF); type: cell-based; conditions: G-402 cells expressing human CYP11B1; 1 μM Deoxycortisol
T1 construct: expressed in transfected cells
T1 sequence (P15538 25-503): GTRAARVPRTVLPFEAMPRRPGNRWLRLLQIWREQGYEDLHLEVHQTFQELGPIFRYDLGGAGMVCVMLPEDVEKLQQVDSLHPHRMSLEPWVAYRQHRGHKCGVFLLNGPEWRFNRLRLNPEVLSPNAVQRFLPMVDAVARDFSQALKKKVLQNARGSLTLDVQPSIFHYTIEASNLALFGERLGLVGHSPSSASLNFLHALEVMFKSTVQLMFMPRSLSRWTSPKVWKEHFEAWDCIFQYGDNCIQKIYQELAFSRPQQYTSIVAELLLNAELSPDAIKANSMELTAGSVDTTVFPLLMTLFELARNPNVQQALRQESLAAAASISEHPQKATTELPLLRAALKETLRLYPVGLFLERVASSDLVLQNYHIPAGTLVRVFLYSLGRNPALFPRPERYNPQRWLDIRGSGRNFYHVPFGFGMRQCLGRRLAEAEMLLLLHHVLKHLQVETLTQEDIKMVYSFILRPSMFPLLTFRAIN
Procedure, shortened: (§1)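 G-402 cells stably expressing human CYP11B2 or CYP11B1, in DMEM/F12 with 2.5% charcoal-treated FCS, were incubated 16 h with compound plus 1 μM deoxycorticosterone (CYP11B2) or 1 μM deoxycortisol (CYP11B1). Aldosterone or cortisol in the supernatant measured by HTRF; EC50 from a 4-parameter MMF fit.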

[2] = target: T2, human CYP11B2 (Homo sapiens, UniProt P19099); assay: G-402 cellular enzyme assay, human CYP11B2 (aldosterone release, HTRF); type: cell-based; conditions: G-402 cells expressing human CYP11B2; 1 μM Deoxycorticosterone
T2 construct: expressed in transfected cells
T2 sequence (P19099 25-503): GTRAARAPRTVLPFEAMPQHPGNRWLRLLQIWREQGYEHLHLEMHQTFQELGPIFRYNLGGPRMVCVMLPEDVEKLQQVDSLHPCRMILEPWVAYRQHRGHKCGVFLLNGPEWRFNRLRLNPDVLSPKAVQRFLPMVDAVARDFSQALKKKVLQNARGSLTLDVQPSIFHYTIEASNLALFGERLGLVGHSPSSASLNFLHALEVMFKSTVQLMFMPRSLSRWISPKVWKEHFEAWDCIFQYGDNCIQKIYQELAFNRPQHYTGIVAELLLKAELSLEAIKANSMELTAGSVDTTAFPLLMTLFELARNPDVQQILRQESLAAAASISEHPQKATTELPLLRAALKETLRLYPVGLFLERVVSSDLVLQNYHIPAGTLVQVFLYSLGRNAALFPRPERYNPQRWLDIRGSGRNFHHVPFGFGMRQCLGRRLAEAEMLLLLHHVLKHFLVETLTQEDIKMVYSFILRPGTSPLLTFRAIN
Procedure, shortened: as §1

Structure (SMILES)	EC50 [1] [nM]	EC50 [2] [nM]
Cc1c(-c2ccc3c(c2)CCC(=O)N3C)cncc1C(C)N[S@+]([O-])C(C)(C)C (single isomer, unassigned) [Example 239, (R)-2-Methyl-propane-2-sulfinic acid {(R or S)-1-[4-methyl-5-(1-methyl-2-oxo-1,2,3,4-tetrahydro-quinolin-6-yl)-pyridin-3-yl]-ethyl}-amide]	401	21
Cc1nnc(C(=O)NCc2cncc(-c3ccc4c(c3)CCC(=O)N4C)c2)o1 [Example 80]	493	43
CCS(=O)(=O)NC(C)c1cncc(-c2cc3c(cc2F)N(C)C(=O)CC3)c1 (racemic) [Example 178, (rac)-Ethanesulfonic acid {1-[5-(7-fluoro-1-methyl-2-oxo-1,2,3,4-tetrahydro-quinolin-6-yl)-pyridin-3-yl]-ethyl}-amide]	535	10
CC(C)(C)OC(=O)N1CC[C@H](Oc2cncc(-c3ccc4c(c3)CCC(=O)N4)c2)C1 [Example 214, (S)-3-[5-(2-oxo-1,2,3,4-tetrahydro-quinolin-6-yl)-pyridin-3-yloxy]-pyrrolidine-1-carboxylic acid tert-butyl ester]	104	30
CCC(=O)N1CC[C@@H](Oc2cncc(-c3cc4c(cc3F)N(C)C(=O)CC4)c2)C1 [Example 133]	837	10
CN1C(=O)CCc2cc(-c3cncc(CNC(=O)c4cnc(C(F)(F)F)cn4)c3)ccc21 [Example 126]	642	7
Cc1noc(C)c1C(=O)NC(C)c1cncc(-c2ccc3c(c2)CCC(=O)N3C)c1 (single isomer, unassigned) [Example 135]	163	6
CN1C(=O)CCc2cc(-c3cncc(N4CCC[C@H]4CO)c3)ccc21 [Example 5, 6-[5-((S)-2-Hydroxymethyl-pyrrolidin-1-yl)-pyridin-3-yl]-1-methyl-3,4-dihydro-1H-quinolin-2-one]	1080	19
Cc1noc(C)c1C(=O)NCc1cncc(-c2ccc3c(c2)CCC(=O)N3C)c1 [Example 75, 3,5-Dimethyl-isoxazole-4-carboxylic acid [5-(1-methyl-2-oxo-1,2,3,4-tetrahydro-quinolin-6-yl)-pyridin-3-ylmethyl]-amide]	509	8
CCS(=O)(=O)NC(C)(C)c1cncc(-c2ccc3c(c2)CCC(=O)N3C)c1 [Example 183, Ethanesulfonic acid {1-methyl-1-[5-(1-methyl-2-oxo-1,2,3,4-tetrahydro-quinolin-6-yl)-pyridin-3-yl]-ethyl}-amide]	268	4
CCC(=O)N(C)CCOc1cncc(-c2ccc3c(c2)CCC(=O)N3C)c1 [Example 197, N-Methyl-N-{2-[5-(1-methyl-2-oxo-1,2,3,4-tetrahydro-quinolin-6-yl)-pyridin-3-yloxy]-ethyl}-propionamide]	62	4
O=C1CCc2nc(-c3cccnc3)ccc2N1 [Example 33, 6-Pyridin-3-yl-3,4-dihydro-1H-[1,5]naphthyridin-2-one]	> 10000	1260
CN1C(=O)CCc2cc(-c3cncc(CNC(=O)c4ncccc4F)c3)ccc21 [Example 119]	75	6
CCC(=O)NCc1cncc(-c2ccc3c(c2)CCC(=O)N3C)c1 [Example 37, N-[5-(1-Methyl-2-oxo-1,2,3,4-tetrahydro-quinolin-6-yl)-pyridin-3-ylmethyl]-propionamide]	1590	44
Cc1cccnc1C(=O)NCc1cncc(-c2ccc3c(c2)CCC(=O)N3C)c1 [Example 115, 3-Methyl-pyridine-2-carboxylic acid [5-(1-methyl-2-oxo-1,2,3,4-tetrahydro-quinolin-6-yl)-pyridin-3-ylmethyl]-amide]	14	1
CN1C(=O)CCc2cc(-c3cncc(CN4CCS(=O)(=O)CC4)c3)ccc21 [Example 20]	20	3
CN1C(=O)CCc2cc(-c3cncc(NCCO)n3)c(F)cc21 [Example 26]	570	18
CN(Cc1cncc(-c2ccc3c(c2)CCC(=O)N3C)c1Cl)C(=O)c1ncccc1Cl [Example 228, 3-Chloro-pyridine-2-carboxylic acid [4-chloro-5-(1-methyl-2-oxo-1,2,3,4-tetrahydro-quinolin-6-yl)-pyridin-3-ylmethyl]-methyl-amide]	356	9

Structure (SMILES)	EC50 [1] [nM]	EC50 [2] [nM]
CN1C(=O)CCc2cc(-c3cncc(N4CCC[C@H]4Cn4cncn4)c3)ccc21 [Example 11]	410	76
CCS(=O)(=O)N(C)C(C)c1cncc(-c2ccc3c(c2)CCC(=O)N3C)c1 (racemic) [Example 186, (rac)-Ethanesulfonic acid methyl-{1-[5-(1-methyl-2-oxo-1,2,3,4-tetrahydro-quinolin-6-yl)-pyridin-3-yl]-ethyl}-amide]	199	11
CN1C(=O)CCc2cc(-c3cncc(OC4CN(C(=O)OC(C)(C)C)C4)c3)ccc21 [Example 47, 3-[5-(1-Methyl-2-oxo-1,2,3,4-tetrahydro-quinolin-6-yl)-pyridin-3-yloxy]-azetidine-1-carboxylic acid tert-butyl ester]	61	3
Cc1noc(C)c1C(=O)NC1(c2cncc(-c3ccc4c(c3)CCC(=O)N4C)c2)CC1 [Example 113]	1570	75
O=C1CCc2cc(-c3cncc(CNC(=O)c4ncccc4Cl)c3)cc(Cl)c2N1 [Example 204, 3-Chloro-pyridine-2-carboxylic acid [5-(8-chloro-2-oxo-1,2,3,4-tetrahydro-quinolin-6-yl)-pyridin-3-ylmethyl]-amide]	2240	20
CN1C(=O)CCc2cc(-c3cccnc3)ncc21 [Example 35, 1-Methyl-6-pyridin-3-yl-3,4-dihydro-1H-[1,7]naphthyridin-2-one]	> 10000	325
CCC(=O)NC1(c2cncc(-c3ccc4c(c3)CCC(=O)N4C)c2)COC1 [Example 130]	10500	162
CN1C(=O)CCc2cc(-c3cncc(C4(N)CC4)c3)ccc21 [Example 59, 6-[5-(1-Amino-cyclopropyl)-pyridin-3-yl]-1-methyl-3,4-dihydro-1H-quinolin-2-one]	710	33
CN1C(=O)CCc2cc(-c3cncc(CN4CCC[C@H]4COCC(F)(F)F)c3)ccc21 [Example 23]	390	32
Cc1nc(C(=O)NCc2cncc(-c3ccc4c(c3)CCC(=O)N4C)c2)co1 [Example 109]	712	78
Cc1noc(C(F)(F)F)c1C(=O)NCc1cncc(-c2ccc3c(c2)CCC(=O)N3C)c1 [Example 136]	2430	47
CN1C(=O)CCc2cc(-c3cncc(CNC(=O)c4cccc(Cl)n4)c3)ccc21 [Example 114]	142	8
CN1C(=O)CCc2cc(-c3cncc(OCCNC(=O)c4cnn(C)c4)c3)ccc21 [Example 103]	2930	15
CCS(=O)(=O)NCc1cncc(-c2cc3c(cc2F)N(C)C(=O)CC3)c1 [Example 16, ethanesulfonic acid [5-(7-fluoro-1-methyl-2-oxo-1,2,3,4-tetrahydro-quinolin-6-yl)-pyridin-3-ylmethyl]-amide]	860	11
Cc1cc(C(=O)NCc2cncc(-c3ccc4c(c3)CCC(=O)N4C)c2)c(Cl)nn1 [Example 105]	2580	86
CCS(=O)(=O)NC(C)c1cncc(-c2ccc3c(c2)CCC(=O)N3C)c1 (single isomer, unassigned) [Example 174, Ethanesulfonic acid {(S or R)-1-[5-(1-methyl-2-oxo-1,2,3,4-tetrahydro-quinolin-6-yl)-pyridin-3-yl]-ethyl}-amide]	1230	33
O=C1CCc2cc(-c3cncc(CNC(=O)c4ncccc4Cl)c3)ccc2N1 [Example 140, 3-Chloro-pyridine-2-carboxylic acid [5-(2-oxo-1,2,3,4-tetrahydro-quinolin-6-yl)-pyridin-3-ylmethyl]-amide]	6650	114

From patent publication US9260408B2, “Dihydroquinoline-2-one derivatives” (Hoffmann-La Roche Inc., priority 2011, dated 2016)
